Source: ChEMBL document CHEMBL3044859, “Antimicrobial activity of Schiff bases of coumarin-incorporated 1,3,4-oxadiazole derivatives: an in vitro evaluation” (2013)

Key:
Assay type in all cases: functional
Escherichia coli = test: Antibacterial activity against Escherichia coli […] at 100 ug/ml by cup-plate method; conditions: read-out: DIZ
Staphylococcus aureus [1] = test: Growth inhibition of Staphylococcus aureus […] at 100 ug/ml by cup-plate method relative to control; conditions: read-out: GI
Staphylococcus aureus [2] = test: Antibacterial activity against Staphylococcus aureus […] at 100 ug/ml by cup-plate method; conditions: read-out: DIZ
Candida albicans [3] = test: Antifungal activity against Candida albicans ATCC 10231 at 100 ug/ml by cup-plate method; conditions: read-out: DIZ
Candida albicans [4] = test: Growth inhibition of Candida albicans ATCC 10231 at 100 ug/ml by cup-plate method relative to control; conditions: read-out: GI

Compound | zone of inhibition at 100 µg/mL (Escherichia coli) [mm] | inhibition of growth at 100 µg/mL (Staphylococcus aureus [1]) [%] | zone of inhibition at 100 µg/mL (Staphylococcus aureus [2]) [mm] | zone of inhibition at 100 µg/mL (Candida albicans [3]) [mm] | inhibition of growth at 100 µg/mL (Candida albicans [4]) [%]
O=c1oc2ccccc2cc1-c1nnc(/N=C/c2ccc([N+](=O)[O-])cc2)o1 | 12 | 64 | 17 | – | –
NNC(=O)c1cc2ccccc2oc1=O | 9 | 40 | 10 | 8 | 40
O=C(O)c1cn(C2CC2)c2cc(N3CCNCC3)c(F)cc2c1=O [CIPROFLOXACIN] | – | 100 | 25 | – | –
O=c1oc2ccccc2cc1-c1nnc(/N=C/c2cccc(F)c2)o1 | 10 | 48 | 12 | 11 | 55
O=c1oc2ccccc2cc1-c1nnc(/N=C/c2ccccc2O)o1 | 12 | 40 | 10 | 10 | 50
CC(=O)N1CCN(c2ccc(OCC3COC(Cn4ccnc4)(c4ccc(Cl)cc4Cl)O3)cc2)CC1 (configuration not stated) [KETOCONAZOLE] | – | – | – | 20 | 100
O=c1oc2ccccc2cc1-c1nnc(/N=C/c2cccc(O)c2)o1 | 15 | 40 | 10 | 11 | 55
CN(C)c1ccc(/C=N/c2nnc(-c3cc4ccccc4oc3=O)o2)cc1 | 12 | 48 | 12 | 16 | 80
COc1ccc(/C=N/c2nnc(-c3cc4ccccc4oc3=O)o2)cc1OC | 10 | 48 | 12 | 10 | 50
O=c1oc2ccccc2cc1-c1nnc(/N=C/c2ccccc2)o1 | 20 | 80 | 20 | 12 | 60
O=c1oc2ccccc2cc1-c1nnc(/N=C/c2ccccc2[N+](=O)[O-])o1 | 14 | 64 | 17 | – | –
O=c1oc2ccccc2cc1-c1nnc(/N=C/c2cccc(Cl)c2)o1 | 17 | – | – | 14 | 70
O=c1oc2ccccc2cc1-c1nnc(/N=C/c2ccc(Cl)cc2)o1 | 17 | – | – | 15 | 75
O=c1oc2ccccc2cc1-c1nnc(/N=C/c2cccc([N+](=O)[O-])c2)o1 | 12 | 64 | 17 | – | –
COc1ccccc1/C=N/c1nnc(-c2cc3ccccc3oc2=O)o1 | 15 | 56 | 14 | 13 | 65
COc1cccc(/C=N/c2nnc(-c3cc4ccccc4oc3=O)o2)c1 | 15 | 56 | 14 | 14 | 70
O=c1oc2ccccc2cc1-c1nnc(/N=C/c2ccccc2F)o1 | 10 | 48 | 12 | 13 | 65
O=c1oc2ccccc2cc1-c1nnc(/N=C/c2ccc(O)cc2)o1 | 10 | 40 | 10 | 9 | 45
O=c1oc2ccccc2cc1-c1nnc(/N=C/c2ccc(F)cc2)o1 | 15 | 48 | 12 | 10 | 50
O=c1oc2ccccc2cc1-c1nnc(/N=C/c2ccccc2Cl)o1 | 17 | – | – | 13 | 65
COc1ccc(/C=N/c2nnc(-c3cc4ccccc4oc3=O)o2)cc1 | 10 | 56 | 14 | 12 | 60
